One assay has as its target T1, human topoisomerase I (Homo sapiens, UniProt P11387).
T1 construct: 15 amino acid vector-derived fusion (pET-11a leader); made in house; host or cells: E. coli BL21(DE3)
T1 sequence (P11387 1-765): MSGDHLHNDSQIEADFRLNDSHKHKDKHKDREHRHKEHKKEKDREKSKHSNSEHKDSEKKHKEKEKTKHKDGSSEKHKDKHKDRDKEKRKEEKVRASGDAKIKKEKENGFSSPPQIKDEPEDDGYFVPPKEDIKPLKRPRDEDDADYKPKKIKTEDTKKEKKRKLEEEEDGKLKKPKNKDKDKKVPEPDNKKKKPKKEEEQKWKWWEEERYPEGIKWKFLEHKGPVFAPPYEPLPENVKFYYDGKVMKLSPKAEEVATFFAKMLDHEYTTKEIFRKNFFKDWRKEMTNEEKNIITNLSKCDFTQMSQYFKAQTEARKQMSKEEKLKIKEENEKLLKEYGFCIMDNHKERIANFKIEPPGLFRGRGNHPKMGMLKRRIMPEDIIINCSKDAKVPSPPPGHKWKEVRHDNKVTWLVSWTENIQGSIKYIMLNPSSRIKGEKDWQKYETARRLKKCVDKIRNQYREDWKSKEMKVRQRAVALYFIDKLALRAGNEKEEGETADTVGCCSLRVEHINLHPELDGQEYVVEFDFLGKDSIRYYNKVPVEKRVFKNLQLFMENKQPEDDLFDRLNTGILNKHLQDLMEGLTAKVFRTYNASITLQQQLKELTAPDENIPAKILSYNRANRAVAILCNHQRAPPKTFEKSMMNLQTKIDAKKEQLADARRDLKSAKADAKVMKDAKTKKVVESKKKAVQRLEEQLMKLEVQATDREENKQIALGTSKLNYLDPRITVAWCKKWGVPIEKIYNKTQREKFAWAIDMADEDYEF
Kind of assay: Topo I cleavage assay (plasmid YEpG DNA). In kind it is biochemical. The text has this:
To obtain large quantity of human topoisomerase I, the human topoisomerase I cDNA was cloned into the pET-11a vector, in which transcription of the cDNA is under the control of the inducible T7 promoter (Studier et al., Methods in Enzymol., Vol. 185:60-89, San Diego: Academic Press (1990)). Briefly, a 3.4 kb DNA fragment containing the entire coding sequence of human topoisomerase I and approximately 1 kb of untranslated region downstream of the stop codon was isolated from the plasmid YCpGAL1-hTOP1 (Bjornsti et al., Cancer Res. 49:6318-6323 (1989)) by cutting at the BamHI and EcoRI sites. The vector pET-11a was cut with the same restriction enzymes, dephosphorylated and ligated to the insert in the proper reading-frame downstream of the vector cloning site. The ligation mixture was used to transform E. coli, the correct clone pET1B was isolated (see figure 2A for the map) and its identity confirmed by restriction mapping. Since the translational start in pET is positioned at an upstream NdeI site, the expressed topoisomerase I has a 15 amino acid fusion at its N-terminus. pET1B was then transformed into E. coli BL21(DE3), and, upon induction with 0.4 mM IPTG for 1 hour, the bacterial lysate was analyzed by 10 % SDS-PAGE. Expression was confirmed by Western blotting using rabbit antibodies against human topoisomerase I. Isolation of the expressed protein was done by a simple procedure. Briefly, E. coli cells were lysed by repeated sonic bursts. The sonic extract was made in 1 M NaCl and 6% polyethylene glycol (PEG) to remove nucleic acids. The PEG supernatant was chromatographed directly on a hydroxyapatite column. Expressed human DNA topoisomerase I was eluted at the 0.6 M potassium phosphate step. The eluted enzyme was dialyzed against 50% glycerol, 30 mM potassium phosphate (pH 7.0), 1 mM dithiothreitol (DTT) and 0.1 mM EDTA and stored at -20°C.
Cleavage assays for the recombinant topoisomerases I and calf thymus topoisomerases I and II were done as described (Liu et al., J. Biol. Chem. 258:15365-15370 (1983)). The plasmid YEpG DNA used for the cleavage assays was prepared and labeled at its 3'-end using the published procedures.

The test system of assay [1] is camptothecin-resistant CPT-K5 cells. Kind of assay: MTT-microtiter plate tetrazolinium cytotoxicity assay (MTA), camptothecin-resistant cells. The following applies: Homo sapiens, CPT-K5, 96 h, read-out: Cytotoxicity IC50 CPT-K5. Here is the method:
The IC50 of the drugs tested were determined by the MTT-microtiter plate tetrazolinium cytotoxicity assay (MTA) (Mosmann, T., J. Immunol. Methods 65:55-63 (1983); Denizot et al., J. Immunol. Methods 89:271-277 (1986)). Human lymphoblast RPMI 8402 cells and their camptothecin-resistant CPT-K5 cells (Andoh et al., Proc. Natl. Acad. Sci., USA 84:5565-5569 (1987)) were kindly provided by Dr. Toshiwo Andoh (Aichi Cancer Center Research Institute, Nagoya, Japan). […] Cells (2000 cells/well, seeded in […] growth medium) were grown in suspension at 37°C in 5% CO2 and maintained by regular passage in RPMI medium supplemented with 10% heat inactivated fetal bovine serum, L-glutamine (2 mM), penicillin (100 U/ml), and streptomycin (0.1 mg/ml). The cells were exposed continuously for 4 days to different drug concentrations, and assayed at the end of the fourth day. Each concentration and the no drug control were repeated at least twice in 6 replica wells. The results were plotted and the IC50 then measured. The drug sensitive human epidermoid carcinoma KB 3-1 cell line and its vinblastine-selected multidrug-resistant variant KB-V1 cells (Akiyama et al., Genetics 11:117-126 (1985)) were kindly provided by Dr. Michael Gottesmann (National Cancer Institute). They were grown as monolayer cultures at 37°C in 5% CO2 and maintained by regular passage in Dulbecco's minimal essential medium supplemented with 10% heat inactivated fetal bovine serum. KB-V1 cells were maintained in the presence of […] vinblastine.

Several values for one entry are separate records, joined by “and”; a condition that tells them apart may be missing. Identical values can stand only once.

In the case of `CC[C@@]1(O)C(=O)OCc2c1cc1n(c2=O)Cc2cc3ccccc3nc2-1` [CPT, camptothecin, reference compound], on human topoisomerase I (concentration relative to camptothecin (CPT) = 1 producing the same cleavage on the plasmid DNA), the “Topo I-mediated DNA cleavage (REC, Relative Effective Concentration)” value is reported as 1. The EC (total cleavage) on human topoisomerase I (read-out: concentration giving total cleavage of DNA in the presence of topoisomerase I) was 0.29 µM and 0.1 µg/mL. In addition, the IC50 (usually the concentration that inhibits the measured activity by half) in assay [1] is more than 10 µM.

These data come from patent EP0888346B1, “CORALYNE ANALOGS AS TOPOISOMERASE INHIBITORS” (RUTGERS, THE STATE UNIVERSITY OF NEW JERSEY, priority 1996, dated 1997).
